Source: patent publication US20260144820A1, “ACTIVATION OF RESIDENT MEMORY T CELLS FOR CANCER IMMUNOTHERAPY” (priority 2015, published 2026)

Key:
[1] = system: virus-specific TRM within skin tumors; design: species or system mice; conditions: mouse, in vivo
VSV-Ova specific TRM = system: VSV-Ova specific TRM; design: species or system mice; conditions: mouse, in vivo

Sequence: SIINFEKL
- recruitment of CD8 T cells and NK cells to tumors [1]: recruit CD8 T cells and NK cells to the tumors
- reactivation of virus-specific TRM within skin tumors (VSV-Ova specific TRM): can become reactivated
